According to paper PMC11969024, “Development of chemokine network inhibitors using combinatorial saturation mutagenesis” (Communications Biology, 2025):

System: panel of 22 biotinylated chemokines
Assay: Saturation (NNK) mutagenesis phage-display selection against biotinylated chemokines, enrichment by NGS
Assay type: binding, human
Conditions: two-sided Dunnett's test; for log2E compared to parental HD2, CXnC chemokines: 7 CXnC chemokines
Description: 81-mer mutant oligonucleotides replacing NNK at each of the 16 peptide encoding residues were designed with the sequence arms 5’-[…], and […]-3’ at respective ends to enable amplification and cloning. Oligonucleotides (Genscript) were individually amplified and cloned into plasmid prSTOP4Nsi (described in[37]). prSTOP4Nsi was amplified using primers (Sigma): […]
Oligonucleotides were amplified using primers (Sigma): oligo_fwd: 5’-[…] and oligo_rev2: 5’-[…]. The PCR products were cloned into prSTOP4Nsi plasmid using NEB Builder HiFi Assembly (E5520, NEB) following instructions of the manufacturer. The vector pool was used to transform electrocompetent ElectroMAX™ DH5α-E™ cells (11319019, Invitrogen). Plasmid DNA was harvested by MaxiPrep (GeneJet Plasmid Maxiprep Kit (K0491, Thermo Scientific)). DNA was transformed into SS320 phage display electrocompetent cells (60512, Lucigen), following the manufacturer’s protocol. Following electroporation, cells were resuspended in 950 μL recovery media and transferred to 50 mL Falcon tubes. 100 μL 10^11 CFU/mL M13KO7 helper phage (N0315S, NEB) was added, and tubes shaken at 37 °C, 220 RPM, 1 h. 1 mL recovery culture was added to 2YT medium containing +50ug/mL carbenicillin (C9231, Sigma) and 25ug/mL kanamycin (K1377, Sigma), and grown overnight at 37 °C, 220 RPM. Phage was precipitated from culture supernatant by adding 22.5 mL of supernatant to 4.5 mL 20% PEG 8000 (89510, Sigma)/2.5 M NaCl (S9625, Sigma), incubating on ice for 30 min, and centrifuging at 12857 g, 4 °C, 10 min. The phage pellet was resuspended in 1 mL of PBT (PBS (P4417, Sigma), BSA (A7030, Sigma) 0.20%, Tween 20 (P1379, Sigma) 0.05%). Undissolved particulate matter was removed by centrifugation at 15871 g, 4 °C, 10 min. Glycerol (G5516, Sigma, 10% final (v/v) was added, and aliquots stored at −80 °C. A schematic of phage-display library construction is provided in Supplementary Fig. 12.
Phage display screening was performed as described. Experiments were performed in 96-well plates (Greiner Bio-One, 655180). Biotinylated chemokines or complement C5A (1μg, Almac or Protein Foundry) were incubated overnight at 4 °C with shaking at 250 RPM with 5μl streptavidin-coated magnetic beads (Dynabeads™ M-280 Streptavidin, Invitrogen, 11205D) in 100 μl PBS. Chemokine-bound beads were blocked for two hours in 200μl blocking buffer (PBS (phosphate-buffered saline, Sigma, P4417) + 0.2% BSA (bovine serum albumin, Sigma, A7030) with shaking at 250 RPM. Phage library (100μL, 10^10 CFU/mL) was bound to blocked beads for two hours at room temperature with shaking at 250 RPM. Beads were washed 15 times with PT buffer (PBS + 0.05% Tween 20 (Sigma, P1379)) to remove unbound phage then transferred to a fresh plate. Beads were incubated with 100μL phage-resistant Omnimax E. coli (Invitrogen, A10469) at optical density (OD600) 0.6-0.8, shaken at 37 °C for 30 min. Following this 10 µL M13K07 helper phage (NEB, N0315S, final concentration 10^10 CFU/mL) was added and shaken at 37 °C for 45 min. Cells were transferred to 1 mL 2YT medium (at pH7, MP Biomedicals™, 113012031, supplemented with 150 µg/mL carbenicillin (Sigma, C9231) and 75 µg/mL kanamycin (Sigma, K1377) in a 96-deep well block with V-bottom (Corning, CLS3960) and grown with overnight shaking at 37 °C, 200 RPM. Plates were either centrifuged at 2000g (4 °C, 30 min) or transferred to screw cap tubes and pelleted by centrifugation at 4000 g and 4 °C for 15 min. 540 µL of supernatant was transferred to a new 96-deep well plate, 60 µL of 10×PBT (10×PBS + 2% BSA + 0.5% Tween 20) added and stored at 4 °C for subsequent rounds. Phage display was carried out for three rounds. A schematic of phage-display library screening is provided in Supplementary Fig. 12.
We amplified inserts from the input library and from the selected phage population directly from phage by PCR using primers: 5’-[…] and 5’-[…] (Life Technologies). […]

For “EEDDWTAYAPLTCYFT [HD2Y5W, HD2 point mutant]”, the “log2E compared to parental HD2, CXnC chemokines” value was “significant improvement”.
In the case of “EEDDYWAYAPLTCYFT [HD2T6W, HD2 point mutant]”, the “log2E compared to parental HD2, CXnC chemokines” value is reported as “significant improvement” and the “log2E compared to parental HD2, all chemokines” value (three selection rounds, 22 chemokines) is reported as “significantly improved”.
